How the values were obtained:
PI3Kα = PI3Kα (Homo sapiens, UniProt P42336); assay: PI3K biochemical assay (luciferase-luciferin ATP consumption); details: 1.5 nM enzyme, 1 μM ATP, 10 μM PIP2; read-out: IC50 for PI3Kα in this assay
Experimental: PI3Kα activity is measured as the percent of ATP consumed following the kinase reaction using luciferase-luciferin-coupled chemiluminescence. Reactions were conducted in 384-well white, medium binding microtiter plates (Greiner). Kinase reactions were initiated by combining test compounds, ATP, substrate (PIP2), and kinase in a 20 μL volume in a buffer solution. The standard PI3Kalpha assay buffer is composed 50 mM Tris, pH 7.5, 1 mM EGTA, 10 mM MgCl2, 1 mM DTT and 0.03% CHAPS. The standard assay concentrations for enzyme, ATP, and substrate are 1.5 nM, 1 μM, and 10 μM, respectively. The reaction mixture was incubated at ambient temperature for approximately 2 h. Following the kinase reaction, a 10 μL aliquot of luciferase-luciferin mix (Promega Kinase-Glo) was added and the chemiluminescence signal measured using a Victor2 plate reader (Perkin Elmer). Total ATP consumption was limited to 40-60% and IC50 values of control compounds correlate well with literature references. Substituting PI3Kα with PI3Kβ, PI3Kγ, or PI3Kδ, the inhibitory activity of the compounds for the other isoforms of I3K were measured.

mTOR/GbL/Raptor (mTORC1) = mTOR/GbL/Raptor (mTORC1) (Homo sapiens, UniProt P42345); assay: mTOR/GbL/Raptor (mTORC1) ELISA assay; assay type: biochemical; details: phosphorylation of 4E-BP1; 0.2 nM mTORC1, 10 μM ATP; read-out: IC50 in this assay (mTORC1 ELISA)
Summary of the method: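 ELISA read-out: phospho-4E-BP1 captured on Ni-chelate plates and detected with anti-phospho antibody plus HRP-anti-IgG luminescence. The kinase step ran 120 min at ambient temperature with 0.2 nM human mTORC1, 10 µM ATP, 50 nM His-4E-BP1, 10 mM MnCl2, pH 7.2 HEPES.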

PI3Kα, sequence (P42336 whole entry, species assumed): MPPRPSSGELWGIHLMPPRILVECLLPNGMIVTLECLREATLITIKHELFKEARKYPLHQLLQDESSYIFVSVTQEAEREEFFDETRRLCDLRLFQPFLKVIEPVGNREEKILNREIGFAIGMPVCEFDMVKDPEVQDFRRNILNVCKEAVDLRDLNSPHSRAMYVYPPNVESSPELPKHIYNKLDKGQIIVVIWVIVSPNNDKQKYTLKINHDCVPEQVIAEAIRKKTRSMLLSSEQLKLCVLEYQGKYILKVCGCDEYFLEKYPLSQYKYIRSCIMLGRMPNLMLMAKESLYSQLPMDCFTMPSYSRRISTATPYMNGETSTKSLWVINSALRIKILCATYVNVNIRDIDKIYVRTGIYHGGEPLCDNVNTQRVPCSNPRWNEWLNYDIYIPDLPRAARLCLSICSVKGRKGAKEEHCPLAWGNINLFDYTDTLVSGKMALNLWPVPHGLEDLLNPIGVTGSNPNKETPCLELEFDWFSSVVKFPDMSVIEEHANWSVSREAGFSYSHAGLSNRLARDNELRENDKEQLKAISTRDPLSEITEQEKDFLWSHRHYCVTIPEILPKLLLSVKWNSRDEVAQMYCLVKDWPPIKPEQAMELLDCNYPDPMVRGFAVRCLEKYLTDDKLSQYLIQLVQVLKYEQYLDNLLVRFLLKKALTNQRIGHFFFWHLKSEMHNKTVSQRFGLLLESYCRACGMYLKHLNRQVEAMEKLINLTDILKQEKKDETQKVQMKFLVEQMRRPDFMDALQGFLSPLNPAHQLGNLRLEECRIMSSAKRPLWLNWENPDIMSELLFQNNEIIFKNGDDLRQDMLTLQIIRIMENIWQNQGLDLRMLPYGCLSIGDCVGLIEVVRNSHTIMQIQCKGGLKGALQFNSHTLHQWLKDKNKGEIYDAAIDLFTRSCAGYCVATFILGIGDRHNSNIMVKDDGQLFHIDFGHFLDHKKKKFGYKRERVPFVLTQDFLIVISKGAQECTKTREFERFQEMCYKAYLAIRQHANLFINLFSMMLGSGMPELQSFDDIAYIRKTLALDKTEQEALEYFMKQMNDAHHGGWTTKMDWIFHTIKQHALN
PI3Kα, sequence (P27986 whole entry partner, species assumed): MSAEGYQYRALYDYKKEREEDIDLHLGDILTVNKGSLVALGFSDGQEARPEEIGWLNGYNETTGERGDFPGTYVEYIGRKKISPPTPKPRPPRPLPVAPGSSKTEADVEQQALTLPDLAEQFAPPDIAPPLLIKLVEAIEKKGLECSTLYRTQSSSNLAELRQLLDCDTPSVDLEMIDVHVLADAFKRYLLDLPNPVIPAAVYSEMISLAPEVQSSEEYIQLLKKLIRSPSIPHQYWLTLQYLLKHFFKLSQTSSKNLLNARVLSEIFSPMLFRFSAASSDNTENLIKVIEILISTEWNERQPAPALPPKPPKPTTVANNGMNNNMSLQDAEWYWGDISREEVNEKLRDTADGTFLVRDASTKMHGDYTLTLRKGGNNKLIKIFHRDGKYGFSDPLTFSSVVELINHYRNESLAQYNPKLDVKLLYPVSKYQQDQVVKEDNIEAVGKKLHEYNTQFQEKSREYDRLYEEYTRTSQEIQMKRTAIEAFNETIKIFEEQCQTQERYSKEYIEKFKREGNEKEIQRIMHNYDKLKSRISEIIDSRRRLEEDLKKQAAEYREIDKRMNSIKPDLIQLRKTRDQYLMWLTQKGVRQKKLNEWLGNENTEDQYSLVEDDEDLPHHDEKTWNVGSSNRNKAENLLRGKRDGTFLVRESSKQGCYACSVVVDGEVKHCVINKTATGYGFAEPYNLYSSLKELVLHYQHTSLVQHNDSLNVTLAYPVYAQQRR

IC50 (PI3Kα) [nM] | IC50 (mTOR/GbL/Raptor (mTORC1)) [nM] | SMILES
50 to 250 | 50 to 250 | Cc1nc2ccc(-c3ccc4c(c3)CN(c3cc(C(C)(C)O)nc5c3CC(C)(C)CC5)CCO4)cc2[nH]1 [Example 362]
1000 to 2000 | ≥ 2000 | COC(=O)Nc1nc2cc(-c3ccc4c(c3)CN(c3ccnc5ccccc35)CCO4)ccc2n1C [Example 115, methyl [1-methyl-5-(4-quinolin-4-yl-2,3,4,5-tetrahydro-1,4-benzoxazepin-7-yl)-1H-benzimidazol-2-yl]carbamate]
1000 to 2000 | 1000 to 2000 | Cc1nc2ccc(-c3ccc4c(c3)CN(c3ncccn3)CCO4)cc2[nH]1 [Example 106, 7-(2-methyl-1H-benzimidazol-6-yl)-4-pyrimidin-2-yl-2,3,4,5-tetrahydro-1,4-benzoxazepine]
≥ 2000 | ≥ 2000 | CCn1ccc2cc(-c3ccc4c(c3)CN(c3ccnc5ccccc35)CCO4)cnc21 [Example 223, 7-(1-ethyl-1H-pyrrolo[2,3-b]pyridin-5-yl)-4-quinolin-4-yl-2,3,4,5-tetrahydro-1,4-benzoxazepine]
≥ 2000 | ≥ 2000 | Cc1nc2cc(-c3ccc4c(c3)CN(c3ccnc5ccccc35)CCO4)ccc2s1 [Example 128, 7-(2-methyl-1,3-benzothiazol-5-yl)-4-quinolin-4-yl-2,3,4,5-tetrahydro-1,4-benzoxazepine]
≥ 2000 | ≥ 2000 | Cc1nc2ccc(-c3ccc4c(c3)CN(c3ccnc(N)c3)CCO4)cc2[nH]1 [Example 262, 4-[7-(2-methyl-1H-benzimidazol-6-yl)-2,3-dihydro-1,4-benzoxazepin-4(5H)-yl]pyridin-2-amine]
≥ 2000 | ≥ 2000 | CCNC(=O)c1cccc(-c2ccc3c(c2)CN(c2nc(C)nc4cc(OC)ccc24)CCO3)c1 [Example 638, N-ethyl-3-{4-[2-methyl-7-(methyloxy)quinazolin-4-yl]-2,3,4,5-tetrahydro-1,4-benzoxazepin-7-yl}benzamide]
≥ 2000 |  | CNC(=O)c1cccc(-c2ccc3c(c2)CN(c2nc(C)nc4cc(OC)ccc24)CCO3)c1 [Example 644, N-methyl-3-{4-[2-methyl-7-(methyloxy)quinazolin-4-yl]-2,3,4,5-tetrahydro-1,4-benzoxazepin-7-yl}benzamide]
1000 to 2000 |  | Cn1ncc2cc(-c3ccc4c(c3)CN(c3ccnc5ccccc35)CCO4)ccc21 [Example 139, 7-(1-methyl-1H-indazol-5-yl)-4-quinolin-4-yl-2,3,4,5-tetrahydro-1,4-benzoxazepine]
1000 to 2000 |  | COCCOC(=O)Nc1nc2ccc(-c3ccc4c(c3)CN(c3ccnc5ccccc35)CCO4)cc2[nH]1 [Example 118, 2-(methyloxy)ethyl [6-(4-quinolin-4-yl-2,3,4,5-tetrahydro-1,4-benzoxazepin-7-yl)-1H-benzimidazol-2-yl]carbamate]
 | ≥ 2000 | Cc1nc2ccc(-c3ccc4c(c3)CN(c3ccnc5cc(C#N)ccc35)CCO4)cc2[nH]1 [Example 242, 4-[7-(2-methyl-1H-benzimidazol-6-yl)-2,3-dihydro-1,4-benzoxazepin-4(5H)-yl]quinolin-7-carbonitrile]
 | 250 to 1000 | COc1c(Cl)cc2c(N3CCOc4ccc(-c5ccc6nc(C)[nH]c6c5)cc4C3)ncnc2c1OC [Example 42, 4-[6-chloro-7,8-bis(methyloxy)quinazolin-4-yl]-7-(2-methyl-1H-benzimidazol-6-yl)-2,3,4,5-tetrahydro-1,4-benzoxazepine]
 | 250 to 1000 | COCCc1c(C)nc(CN(C)C)nc1N1CCOc2ccc(-c3ccc4nc(C)[nH]c4c3)cc2C1 [Example 664, N,N-dimethyl-1-{4-methyl-6-[7-(2-methyl-1H-benzimidazol-6-yl)-2,3-dihydro-1,4-benzoxazepin-4(5H)-yl]-5-[2-(methyloxy)ethyl]pyrimidin-2-yl}methanamine]
 | 250 to 1000 | Cc1nc2c(C)cc(-c3ccc4c(c3)CN(c3ncnc5cccnc35)CCO4)cc2[nH]1 [Example 214, 7-(2,4-dimethyl-1H-benzimidazol-6-yl)-4-pyrido[3,2-d]pyrimidin-4-yl-2,3,4,5-tetrahydro-1,4-benzoxazepine]
 | ≤ 10 | Cc1nc2ccc(-c3ccc4c(c3)CN(c3ccnc(C)c3Cc3cccc(F)c3)CCO4)cc2[nH]1 [Example 103, 4-{3-[(3-fluorophenyl)methyl]-2-methylpyridin-4-yl}-7-(2-methyl-1H-benzimidazol-6-yl)-2,3,4,5-tetrahydro-1,4-benzoxazepine]
 | 10 to 50 | Cc1nc2ncc(-c3ccc4c(c3)CN(c3nc(-c5ccccn5)nc5c3CC(C)(C)CC5)CCO4)cc2[nH]1 [Example 473, 4-(6,6-dimethyl-2-pyridin-2-yl-5,6,7,8-tetrahydroquinazolin-4-yl)-7-(2-methyl-1H-imidazo[4,5-b]pyridin-6-yl)-2,3,4,5-tetrahydro-1,4-benzoxazepine]

The remaining lines, values behind:

SMILES | IC50 (PI3Kα) [nM] | IC50 (mTOR/GbL/Raptor (mTORC1)) [nM]
COc1cc(-c2ccc3c(c2)CN(c2nc(CN(C)C)nc4c2CC(C)(C)CC4)CCO3)ccc1Cl [Example 326] | 1000 to 2000 | 250 to 1000
Cc1ncnc(N2CCOc3ccc(-c4ccc(C(=O)N[C@H]5CCNC5)cc4)cc3C2)c1Cc1ccc(F)cc1 [Example 173, 4-(4-{5-[(4-fluorophenyl)methyl]-6-methylpyrimidin-4-yl}-2,3,4,5-tetrahydro-1,4-benzoxazepin-7-yl)-N-[(3S)-pyrrolidin-3-yl]benzamide] | ≥ 2000 | 250 to 1000
[H]/N=c1\ncc(-c2ccc3c(c2)CN(c2ncnc4c2CC(C)(C)CC4)CCO3)cn1O [Example 231, (2E)-5-[4-(6,6-dimethyl-5,6,7,8-tetrahydroquinazolin-4-yl)-2,3,4,5-tetrahydro-1,4-benzoxazepin-7-yl]-2-iminopyrimidin-1(2H)-ol] | ≥ 2000 | 1000 to 2000
CC(=O)Nc1cc(-c2ccc3c(c2)CN(c2ncnc4c2CC(C)(C)CC4)CCO3)cnc1Cl [Example 622, N-{2-chloro-5-[4-(6,6-dimethyl-5,6,7,8-tetrahydroquinazolin-4-yl)-2,3,4,5-tetrahydro-1,4-benzoxazepin-7-yl]pyridin-3-yl}acetamide] | 1000 to 2000 | 250 to 1000
CC[C@H]1CCc2c(nc(C)nc2N2CCOc3ccc(-c4cnc5nc([C@H](C)NC(=O)OCc6ccccc6)[nH]c5c4)cc3C2)C1 [Example 646, phenylmethyl [(1S)-1-(6-{4-[(7S)-7-ethyl-2-methyl-5,6,7,8-tetrahydroquinazolin-4-yl]-2,3,4,5-tetrahydro-1,4-benzoxazepin-7-yl}-1H-imidazo[4,5-b]pyridin-2-yl)ethyl]carbamate] | 1000 to 2000 | 
CC1(C)CCc2ncnc(N3CCOc4ccc(-c5cnc(N)c(S(=O)(=O)N6CCC(O)C6)c5)cc4C3)c2C1 (stereo not drawn) [Example 318] |  | 10 to 50
CC1(C)C=Cc2ncnc(N3CCOc4ccc(-c5cnc(N)c(S(=O)(=O)N6CC[C@@H](N)C6)c5)cc4C3)c2C1 [Example 450, 3-{[(3R)-3-aminopyrrolidin-1-yl]sulfonyl}-5-[4-(6,6-dimethyl-5,6-dihydroquinazolin-4-yl)-2,3,4,5-tetrahydro-1,4-benzoxazepin-7-yl]pyridin-2-amine] |  | ≤ 10
CN(C)CCNS(=O)(=O)c1cc(-c2ccc3c(c2)CN(c2ncnc4c2CC(C)(C)CC4)CCO3)cnc1N [Example 423, 2-amino-N-[2-(dimethylamino)ethyl]-5-[4-(6,6-dimethyl-5,6,7,8-tetrahydroquinazolin-4-yl)-2,3,4,5-tetrahydro-1,4-benzoxazepin-7-yl]pyridine-3-sulfonamide] |  | 50 to 250
Cc1ncnc(N2CCOc3ccc(-c4ccc5nc(N)cn5c4)cc3C2)c1Cc1ccc(F)cc1 [Example 145, 6-(4-{5-[(4-fluorophenyl)methyl]-6-methylpyrimidin-4-yl}-2,3,4,5-tetrahydro-1,4-benzoxazepin-7-yl)imidazo[1,2-a]pyridin-2-amine] |  | 10 to 50
CC1(C)CCc2ncnc(N3CCOc4ccc(-c5cnc6sc(N)nc6c5)cc4C3)c2C1 [Example 248, 6-[4-(6,6-dimethyl-5,6,7,8-tetrahydroquinazolin-4-yl)-2,3,4,5-tetrahydro-1,4-benzoxazepin-7-yl][1,3]thiazolo[5,4-b]pyridin-2-amine] |  | ≤ 10
CC[C@H]1CCc2c(ncnc2N2CCOc3ccc(-c4cnc5nc(NC(=O)OC)[nH]c5c4)cc3C2)C1 [Example 578, methyl (6-{4-[(7S)-7-ethyl-5,6,7,8-tetrahydroquinazolin-4-yl]-2,3,4,5-tetrahydro-1,4-benzoxazepin-7-yl}-1H-imidazo[4,5-b]pyridin-2-yl)carbamate] |  | 10 to 50
Cc1nc2ncc(-c3ccc4c(c3)CN(c3nc(CN(C)C(C)C)nc5c3CC(C)(C)CC5)CCO4)cc2[nH]1 [Example 606, N-({6,6-dimethyl-4-[7-(2-methyl-1H-imidazo[4,5-b]pyridin-6-yl)-2,3-dihydro-1,4-benzoxazepin-4(5H)-yl]-5,6,7,8-tetrahydroquinazolin-2-yl}methyl)-N-methylpropan-2-amine] |  | 10 to 50

From patent US8648066B2 (Exelixis, Inc., priority 2009, dated 2014)
